Results as given in US20260216144A1, “TARGETING MB2 OF THE MYC ONCOGENE AND ITS INTERACTION WITH TRRAP IN CANCER” (priority 2019, published 2026).

These compounds were tested against MYC:TRRAP interaction (Homo sapiens, UniProt P01106+Q9Y4A5) (assay: MYC:TRRAP in-cell luminescence complementation assay (NanoBiT; SmB-MYC 1-190 and TRRAP 2033-2283-LgB in HeLa cells)). Conditions: not given.
Type: cell-based
Experimental: HeLa cells plated on Greiner 96-well TC-rated white plates with clear bottoms were used for the following measurements. Reverse transfections were carried out using LipoD293™ before cells were plated. A bluescript KS' plasmid (Addgene) was used as carrier DNA for transfections, and a pcDNA3.1 EGFP plasmid (ThermoFisher) was used as a fluorescence reporter. White light-reflecting film (USA Scientific) was used to cover the bottom of the plates for luminescence measurements. Black light-absorbing film was used to cover the top of the plates for fluorescence measurements. All measurements were taken on a SpectraMax i3 instrument (Molecular Devices).
Transfections were carried out with increasing DNA amounts (1-100 ng per well) of a CMV-driven LgB plasmid and SmB in excess or vice-versa. Background luminesce for the usable range and the amount of DNA needed for vast excess of LgB or SmB were noted. Next, complementation with vast excess either LgB or SmB was used to determine the expression of each of the indicated MYC and TRRAP constructs for a range of DNA amounts per well: 10-100 ng. An optimal ratio of DNA to equalize the expression of each MYC and TRRAP pair was calculated. Then, signal-to-noise ratios were calculated for the indicated MYC and TRRAP pairs, and the pair with the highest ratio was chosen. Finally, the chosen pair was used to determine the optimal DNA transfection mixture. It was determined to be 6.7 ng of a plasmid with a MYC construct, 60 ng of a plasmid with a TRRAP construct and 33.3 ng of the pcDNA 3.1 EGFP plasmid, for each well in a 96-well plate. Unless otherwise indicated, these were the ratios of DNA transfected for this type of assay.
HeLa cells were transfected as above using LipoD293™ with a mixture of SmB-MYC 1-190, TRRAP 2033-2283-LgB, and EGFP in CMV-driven plasmids at the same optimized ratio described above. Two days post-transfection, the media in each well was replaced with fresh media containing each compound from the NCI's sets at 25 μM. Cells were incubated for 2 h with each compound, and luminescence and fluorescence measurements were recorded for each well. Changes in luminescence were normalized to fluorescence. The following pre-plated compound sets were obtained from the NCI/DTP chemical repository and used for this screen:
These chemical sets were used to discover novel small-molecule inhibitors of the MYC:TRRAP complex. SmB-MYC 1-190, TRRAP 2033-2283-LgB, and EGFP were transfected into HeLa cells. Two days post-transfection, compounds were added to the media at 25 μM and cells were incubated for 2h. Luminescence and fluorescence were recorded for each well containing one of the compounds. Changes in luminescence measurements were normalized to fluorescence measurements.
Afterwards, only molecules that reduced luminescence levels to <50% RLU were considered. This set of 46 compounds were incubated at 10 μM with vector-expressing cells. Luminescence complementation was measured and repeated in triplicate measurements. In addition, HeLa cells expressing LgB and SmB alone were incubated with the same compounds to rule out potentially artificial results due to inhibition of luciferase or its complementation. Molecules that induces any significant reduction in luminescence (<0.6) during this control assay were not considered further. Of 2947 molecules, 17 were chosen for further testing and ordered from the NCI/DTP Open Chemical Repository. FIG. 16 describes these chosen compounds.
Using the luminescence assay above as a readout for the MYC:TRRAP interaction, we used a robotic liquid handler to evaluate 2987 additional compounds (25 μM). All primary hits were counter-screened for any activity against the luciferase enzyme itself and for any effects on the expression of the fusion proteins. We set a threshold of 50% inhibition to consider compounds further. Only 17 out of 2987 passed all these criteria (0.6%). […]

Sequence of MYC:TRRAP interaction (P01106 16-205): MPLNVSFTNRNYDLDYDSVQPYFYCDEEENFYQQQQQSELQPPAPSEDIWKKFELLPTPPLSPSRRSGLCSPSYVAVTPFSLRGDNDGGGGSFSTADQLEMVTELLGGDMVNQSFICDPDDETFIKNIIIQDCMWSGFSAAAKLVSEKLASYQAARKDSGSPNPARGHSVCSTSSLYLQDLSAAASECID
Sequence of MYC:TRRAP interaction (Q9Y4A5 2051-2301): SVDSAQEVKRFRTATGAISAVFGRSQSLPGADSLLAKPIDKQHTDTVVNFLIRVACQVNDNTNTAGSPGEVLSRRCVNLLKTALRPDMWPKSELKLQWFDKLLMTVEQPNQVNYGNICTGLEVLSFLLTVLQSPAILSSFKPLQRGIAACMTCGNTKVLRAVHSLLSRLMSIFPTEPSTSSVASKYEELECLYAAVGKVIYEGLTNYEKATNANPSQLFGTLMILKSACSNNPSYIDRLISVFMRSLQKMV

Row | Structure (SMILES) | % Inhibition 10 uM
1 | CC[C@H](C)[C@@H]1/N=C(\O)[C@@H](NC(=O)c2c3nc4c(C(=O)N[C@@H]5/C(O)=N/[C@@H](C(C)C)C(=O)N6CCC[C@H]6C(=O)N(C)CC(=O)N(C)[C@@H](C(C)C)C(=O)O[C@@H]5C)ccc(C)c4oc-3c(C)c(=O)c2N)[C@@H](C)OC(=O)[C@H](C(C)C)N(C)C(=O)CN(C)C(=O)[C@@H]2CCCN2C1=O [Compound 20, 2-amino-1-N-[(3S,6S,7R,10S, 16S)-3-[(2S)-butan-2-yl]-7,11,14-trimethyl-2,5,9,12,15-pentaoxo-10-propan-2-yl-8-oxa-1,4,11,14-tetrazabicyclo [14.3.0]nonadecan-6-yl]-4,6-dimethyl-3-oxo-9-N-[(3S,6S,7R, 10S,16S)-7,11,14-trimethyl-2,5,9,12,15-pentaoxo-3,10-di(propan-2-yl)-8-oxa-1,4,11,14-tetrazabicyclo [14.3.0]nonadecan-6-yl]phenoxazine-1,9-dicarboxamide] | 41.4%

Same assay, conditions: Table 1; 46 primary hits at 10 uM; HeLa cells; triplicate measurements

Row | Structure (SMILES) | % Inhibition 10 uM
2 | Nc1ccc(N=Nc2ccccc2Cl)c(N)n1 [Compound 1, 3-[(2-chlorophenyl)diazenyl] pyridine-2,6-diamine] | 14.38%
3 | Cc1cc(O)c(C(C)C)cc1C1(c2cc(C(C)C)c(O)cc2C)OC(=O)c2ccccc21 [Compound 2, 3,3-bis(4-hydroxy-2-methyl-5-propan-2-ylphenyl)-2-benzofuran-1-one] | 11.16%
4 | Nc1ccc(/N=N/c2ccccc2)c2ccccc12 [Compound 3, 4-phenyldiazenylnaph-thalen-1-amine] | 22.41%
5 | N=c1ccc(/N=N/c2ccc(O)cc2)c(N)[nH]1 [Compound 4, 4-[(2,6-diaminopyridin-3-yl)diazenyl]phenol] | 30.35%
6 | Cc1ccc(NC(=O)c2cc3ccccc3c(/N=N/c3ccccc3O)c2O)c(C)c1 [Compound 5, N-(2,4-dimethylphenyl)-3-hydroxy-4-[(2-hydroxyphenyl)diazenyl] naphthalene-2-carboxamide] | 37.24%
7 | COc1ccc(OC)c(-c2cc(=O)c3c(OC)c(OC)c(OC)c(OC)c3o2)c1 [Compound 6, 2-(2,5-dimethoxyphenyl)-5,6,7,8-tetramethoxy-chromen-4-one] | 33.66%
8 | COC(=O)c1c[nH]c2c1-c1cc(C(=O)OCc3ccccc3)n(S(=O)(=O)c3ccc(C)cc3)c1C(=O)C2=O [Compound 7, 2-O-benzyl 8-O-methyl 3-(4-methylphenyl) sulfonyl-4,5-dioxo-6H-pyrrolo[3,2-e]indole-2,8-dicarboxylate] | 16.02%
9 | COC(=O)c1cc(-c2c[nH]cc2C(=O)OCc2ccccc2)cn1S(=O)(=O)c1ccc(C)cc1 [Compound 8, methyl 1-(4-methylphenyl) sulfonyl-4-(4-phenylmethoxycar-bonyl-1H-pyrrol-3-yl)pyrrole-2-carboxylate] | 33.32%
10 | Cc1ccc(Cl)cc1NC(=O)c1cc2ccccc2cc1O [Compound 9, N-(5-chloro-2-methylphenyl)-3-hydroxy-naphthalene-2-carboxamide] | 48.59%
11 | Cc1cc(N(C)C)ccc1/N=N/c1ccc2ncccc2c1 [Compound 12, N,N,3-trimethyl-4-(quinolin-6-yldiazenyl)aniline] | 58.86%
12 | COC1=C(N)C(=O)c2nc(-c3nc(C(=O)O)c(C)c(-c4ccc(OC)c(OC)c4O)c3N)ccc2C1=O [Compound 14, 5-amino-6-(7-amino-6-methoxy-5,8-dioxoquinolin-2-yl)-4-(2-hydroxy-3,4-dimethoxyphenyl)-3-methylpyridine-2-carboxylic acid] | 40.78%
13 | COc1c2c(c(CC=C(C)C)c3oc(=O)c(-c4ccc(O)cc4)c(O)c13)OC(C)(C)C=C2 [Compound 24, 6-hydroxy-7-(4-hydroxyphenyl)-5-methoxy-2,2-dimethyl-10-(3-methylbut-2-enyl)pyrano[3,2-g]chromen-8-one] | 41.01%
14 | CC(C)(C)c1cc(C=C(C#N)C#N)cc(C(C)(C)C)c1O [Compound 25, 2-[(3,5-ditert-butyl-4-hydroxyphenyl)methylidene] propanedinitrile] | 42.52%

Now from value to compound:

Row | % Inhibition 10 uM | Structure (SMILES)
15 | 96.48% | CN(C)c1ccc(C=C2C=C(c3ccc4c(c3)CCCC4)OC2=O)cc1 (stereo in doubt) [Compound 46, (3Z)-3-[[4-(dimethylamino)phenyl]methylidene]-5-(5,6,7,8-tetrahydro-naphthalen-2-yl)furan-2-one]
16 | 68.66% | C/N=c1\sc2c(n1C)C(=O)c1ccccc1C2=O [Compound 13, 3-methyl-2-methyliminobenzo [f][1,3] benzothiazole-4,9-dione]
17 | 57.02% | CCN(CC)Cc1cc(/N=N/c2c(O)ccc3c(/N=N/c4ccc(O)c(CN(CC)CC)c4)c(O)ccc23)ccc1O.Cl [Compound 15, 1,5-bis[[3-(diethyl-aminomethyl)-4-hydroxyphenyl]diazenyl] naphthalene-2,6-diol; hydrochloride]
18 | 62.4% | Cc1nc(/N=N/c2ccccc2)[nH]c1/N=N/c1ccccc1 [Compound 16, (5-methyl-2-phenyldiazenyl-1H-imidazol-4-yl)-phenyldiazene]
19 | 46.81% | CC(=O)OC(C)C1C2=C(C(=O)C[C@]1(C)O)C(=O)c1c(ccc(-c3ccc4c(c3O)C(=O)C3=C(C4=O)C(C(C)OC(C)=O)[C@@](C)(O)CC3=O)c1O)C2=O (stereo partly drawn) [Compound 17, 1-[(2S)-6-[(6S)-5-(1-acetyloxyethyl)-1,6-dihydroxy-6-methyl-8,9,10-trioxo-5,7-dihydroanthracen-2-yl]-2,5-dihydroxy-2-methyl-4,9,10-trioxo-1,3-dihydroanthracen-1-yl]ethyl acetate]
20 | 57.21% | Cc1ccc2c(c1)C(=C(C#N)C#N)CCN2 [Compound 18, 2-(6-methyl-2,3-dihydro-1H-quinolin-4-ylidene)propanedi-nitrile]
21 | 92.01% | N#C/C(S)=N/c1ccc(F)cc1 [Compound 19, 1-cyano-N-(4-fluorophenyl) methanethioamide]
22 | 39.88% | COC(=O)c1cc2c(n1S(=O)(=O)c1ccc(C)cc1)C(=O)C(=O)c1[nH]cc(C(=O)OCc3ccccc3)c1-2 [Compound 21, 8-O-benzyl 2-O-methyl 3-(4-methylphenyl) sulfonyl-4,5-dioxo-6H-pyrrolo[3,2-e]indole-2,8-dicarboxylate]
23 | 52.48% | COc1cc(O)c2c(c1)C(=O)c1cc3c(c(O)c1C2=O)C(OC1OC(C)C(O)C(O)C1OC)C(OC)C(C)(O)C3=O (stereo not shown) [Compound 22, 4-(4,5-dihydroxy-3-methoxy-6-methyloxan-2-yl)oxy-2,5,7-trihydroxy-3,9-dimethoxy-2-methyl-3,4-dihydrotetracene-1,6,11-trione]

Same assay, conditions: Table 1; 46 primary hits at 10 uM; HeLa cells; triplicate measurements; 10 µM

Row | Structure (SMILES) | % Inhibition 10 uM
24 | N=C1C=C(N)C(=O)c2nc(O)ccc21 [Compound 11, 7-amino-5-imino-1H-quinoline-2,8-dione] | 46.89%
25 | COC(=O)c1nc(-c2ccc3c(n2)C(=O)C(N)=C(OC)C3=O)c(N)c(-c2ccc(OC)c(OC)c2O)c1C [Compound 23, methyl 5-amino-6-(7-amino-6-methoxy-5,8-dioxoquinolin-2-yl)-4-(2-hydroxy-3,4-dimethoxyphenyl)-3-methylpyridine-2-carboxylate] | 50.17%

Same assay, conditions: Table 1; 46 primary hits at 10 uM; HeLa cells; triplicate measurements; listed as 29, 10 µM

Row | Structure (SMILES) | % Inhibition 10 uM
26 | COC(=O)c1nc(-c2ccc3c(n2)C(=O)C(N)=C(OC)C3=O)c(N)c(-c2ccc(OC)c(OC)c2O)c1C [Compound 23, methyl 5-amino-6-(7-amino-6-methoxy-5,8-dioxoquinolin-2-yl)-4-(2-hydroxy-3,4-dimethoxyphenyl)-3-methylpyridine-2-carboxylate] | 60.1%

Same assay, conditions: Table 1; 46 primary hits at 10 uM; HeLa cells; triplicate measurements; listed as 43, 10 µM

Row | % Inhibition 10 uM | Structure (SMILES)
27 | 57.34% | N=C1C=C(N)C(=O)c2nc(O)ccc21 [Compound 11, 7-amino-5-imino-1H-quinoline-2,8-dione]

Same assay, conditions: Table 2; compounds with >80% similarity to compound 10 (NSC657456); 10 uM

Row | % Inhibition 10 uM | Structure (SMILES)
28 | 48.26% | N#CC(=C/N=C(S)/N=N/c1c(O)[nH]c2ccccc12)c1nc2ccccc2s1 (stereo in doubt) [Compound 1030, 1-[(E)-2-(1,3-benzothiazol-2-yl)-2-cyanoethenyl]-3-[(2-hydroxy-1H-indol-3-yl)imino] thiourea]
